Measurements published in BindingDB's records for doi:10.1021/jm051222g (Uppsala University, 2006).

Target: Type-2 angiotensin II receptor (Sus scrofa)
Test: Displacement of [125I]Ang2 from AT2 receptor in pig uterus myometrium

Ki [nM]	Compound
4.7	CC[C@H](C)[C@@H]1Nc2c(Cc3ccc(O)cc3)cc(NC(=O)[C@H](CCCN=C(N)N)NC(=O)[C@@H](N)CC(=O)O)cc2CN(CC(=O)N[C@@H](Cc2cnc[nH]2)C(=O)N2CCC[C@H]2C(=O)N[C@@H](Cc2ccccc2)C(=O)O)C1=O [(3S)-3-amino-3-{[(1S)-1-{[(2S)-2-[(2S)-butan-2-yl]-4-({[(2S)-1-[(2S)-2-{[(1S)-1-carboxy-2-phenylethyl]carbamoyl}pyrrolidin-1-yl]-3-(1H-imidazol-4-yl)-1-oxopropan-2-yl]carbamoyl}methyl)-9-[(4-hydroxyphenyl)methyl]-3-oxo-2,3,4,5-tetrahydro-1H-1,4-benzodiazepin-7-yl]carbamoyl}-4-[(diaminomethylidene)amino]butyl]carbamoyl}propanoic acid]
53.1	CC[C@H](C)[C@@H]1Nc2c(Cc3ccc(O)cc3)cc(NC(=O)[C@H](CCCN=C(N)N)NC(=O)[C@@H](N)CC(=O)O)cc2CN(CC(=O)N2CCC[C@H]2C(=O)N[C@@H](Cc2ccccc2)C(=O)O)C1=O [(3S)-3-amino-3-{[(1S)-1-{[(2S)-2-[(2S)-butan-2-yl]-4-{2-[(2S)-2-{[(1S)-1-carboxy-2-phenylethyl]carbamoyl}pyrrolidin-1-yl]-2-oxoethyl}-9-[(4-hydroxyphenyl)methyl]-3-oxo-2,3,4,5-tetrahydro-1H-1,4-benzodiazepin-7-yl]carbamoyl}-4-[(diaminomethylidene)amino]butyl]carbamoyl}propanoic acid]
